pIC50: −log10 of the molar value. Like-named read-outs stand apart in the source and are kept apart here. Some results are limits rather than exact numbers.

The target of one assay is T1, EGFR (Homo sapiens, UniProt P00533).
T1 construct: The intracellular portion of EGFR started at nucleotide 2189 (corresponding to amino acid 667) and ended at the termination codon; made in house; host or cells: Sf9 insect cells (baculovirus)
Nature of the assay: EGFR Kinase Assay.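 As to all read-outs here: recombinant GST-tagged EGFR expressed in Sf9 cells, phosphorylating biotinylated polyGluTyr with γ-33P ATP on Streptavidin Flashplates, 1 h at 30 °C, scintillation counting, inhibition relative to plate maximum and minimum signals.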 The assay is classed as biochemical. The settings on record: for inhibition at 2 µM: test concentration of 2 μM.

For the next assay, the target named is T2, HER-2 (Homo sapiens, UniProt P04626).
T2 construct: purchased Proqinase (Freiburg, Germany)
T2 sequence (P04626 679-1255): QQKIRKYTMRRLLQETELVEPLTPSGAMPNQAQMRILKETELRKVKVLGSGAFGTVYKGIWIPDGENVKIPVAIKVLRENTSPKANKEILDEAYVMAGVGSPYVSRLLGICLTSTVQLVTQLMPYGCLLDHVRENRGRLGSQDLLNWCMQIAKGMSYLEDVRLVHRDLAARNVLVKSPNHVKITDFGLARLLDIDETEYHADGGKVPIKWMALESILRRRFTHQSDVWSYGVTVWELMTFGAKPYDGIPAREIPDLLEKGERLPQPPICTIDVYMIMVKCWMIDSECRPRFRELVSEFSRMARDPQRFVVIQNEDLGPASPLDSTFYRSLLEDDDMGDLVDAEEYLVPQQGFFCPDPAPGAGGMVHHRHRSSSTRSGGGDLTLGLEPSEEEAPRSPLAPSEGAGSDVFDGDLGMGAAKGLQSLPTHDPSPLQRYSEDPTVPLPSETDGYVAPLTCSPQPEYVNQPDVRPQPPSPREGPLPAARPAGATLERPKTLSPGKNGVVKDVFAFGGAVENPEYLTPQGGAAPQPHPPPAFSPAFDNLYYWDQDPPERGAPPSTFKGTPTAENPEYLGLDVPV
Nature of the assay: HER-2 Kinase Assay.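 As to all read-outs here: HER2 kinase reaction read by scintillation counting, inhibition scaled between maximum and minimum signals set on each plate, IC50 from inhibition against log concentration.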 It counts as biochemical. Conditions: for pIC50: read-out: HER2 IC50.

In assay [1] the test system is HeLa cervical adenocarcinoma. Nature of the assay: In vitro cell proliferation inhibition, HeLa. It counts as cell-based. Conditions: Homo sapiens, read-out: HeLa IC50. An excerpt:
The ability of a test compound to inhibit unregulated in vitro cell proliferation may be determined by measuring incorporation of ^14C-labelled thymidine into newly synthesized DNA within cell lines derived from carcinomas originating from several tissues. Accordingly, the effect of a test compound on proliferation of cells with a variety of phenotypes may be determined.
Carcinoma cell lines used include the HeLa cervical adenocarcinoma from the American Type Culture Collection (ATCC Cat. #CCL2), SK-OV-3 ovarian carcinoma (ATCC Cat. #HTB-77), MCF-7 breast carcinoma (ATCC Cat. #HTB-22), BT474 breast carcinoma (ATCC Cat. #HTB-20), SKBR3 breast carcinoma (ATCC Cat. #HTB-30), A431 epidermoid carcinoma (ATCC Cat. #CRL-1555) and NCI-N87 gastric carcinoma (ATCC Cat. #CRL-5822).
The carcinoma cells are trypsinized and counted. The cells (3000-8000 count) are added to each well of a 96-well CytoStar tissue culture treated scintillating microplate (Amersham #RPNQ0160) in complete medium (100 μL) and the plate is then incubated in complete medium for 24 hrs at 37° C. in an inert atmosphere containing 5% CO2.
Test compound (1 μL) in 100% DMSO is added to the plate test-wells with DMSO only added to control-wells. The plate is incubated in complete medium for a second 24 hr period at 37° C. in an atmosphere containing 5% CO2.
An aliquot of a solution of Methyl ^14C-thymidine (56 mC/mmol) (NEN #NEC568 or Amersham #CFA532) and complete medium (20 μL to provide 0.2 μCi/well) is then added to each well and the plate is incubated for a third 24 hr period at 37° C. in an atmosphere containing 5% CO2.
The plate contents are then discarded, the plate is washed twice with PBS (200 μL) and then PBS (200 μL) is added to each well. The plate is sealed and the degree of methyl ^14C-thymidine incorporation is quantified on a Packard Top Count.
Cell proliferation of the Hela cell line was measured using the ATP-Lite method as described in the ATP Lite Kit (Perkin-Elmer Kit Number 6106941) or the C^14 method as described above. Cell proliferation of the other cell lines was measured using the C^14 method.
The term “NT” means that the compound indicated was not tested in a particular cell line. The lack of such testing is not intended to imply a belief that the compound is not otherwise active in a particular cell line or any other cell line not tested.

[2] abbreviates: HeLa cell line, ATP-Lite method or C14 thymidine method.

T1 sequence (P00533 669-1210 limits assumed): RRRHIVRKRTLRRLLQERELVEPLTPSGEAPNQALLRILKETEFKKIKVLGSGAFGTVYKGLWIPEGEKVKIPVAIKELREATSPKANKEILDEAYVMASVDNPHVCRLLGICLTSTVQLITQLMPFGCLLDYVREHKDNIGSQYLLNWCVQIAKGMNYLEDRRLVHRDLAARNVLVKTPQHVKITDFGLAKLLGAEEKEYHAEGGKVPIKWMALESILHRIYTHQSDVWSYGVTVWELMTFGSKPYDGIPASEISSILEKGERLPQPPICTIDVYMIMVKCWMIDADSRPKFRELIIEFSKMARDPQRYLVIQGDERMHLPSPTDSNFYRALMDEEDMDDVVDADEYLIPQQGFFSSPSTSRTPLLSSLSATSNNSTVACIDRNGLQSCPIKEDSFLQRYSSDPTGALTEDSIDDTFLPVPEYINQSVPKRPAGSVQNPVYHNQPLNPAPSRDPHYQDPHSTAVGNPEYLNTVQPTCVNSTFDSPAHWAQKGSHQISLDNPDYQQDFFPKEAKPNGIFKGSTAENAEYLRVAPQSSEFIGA

The pIC50 is the negative decadic logarithm of the IC50, by convention in mol/L. Turning to `CCO/N=C/c1c(N)ncnc1Nc1ccc2c(cnn2Cc2cccc(Cl)c2)c1` [Cpd 55, (5E)-4-amino-6-[1-(3-chloro-benzyl)-1H-indazol-5-ylamino]-pyrimidine-5-carbaldehyde O-ethyl-oxime], the negative logarithm of the IC50 (pIC50) against EGFR is 7.40; at HER-2, 7.52.
Consider `CO/N=C/c1c(N)ncnc1Nc1ccc(OC)c(Cl)c1` [Cpd 63], for which the pIC50 against EGFR was 5.92; on HER-2 it was 6.00.
For the molecule `Nc1ncnc(Nc2ccc3c(cnn3Cc3cccc(F)c3)c2)c1/C=N/Oc1ccccc1` [Cpd 65, (5E)-4-amino-6-[1-(3-fluoro-benzyl)-1H-indazol-5-ylamino]-pyrimidine-5-carbaldehyde O-phenyl-oxime], the figures for the pIC50 on EGFR and at HER-2 were 7.40 and 6.70, respectively.
Regarding `CCO/N=C/c1c(N)ncnc1Nc1ccc2c(cnn2Cc2ccc(F)cc2)c1` [Cpd 67, (5E)-4-amino-6-[1-(4-fluoro-benzyl)-1H-indazol-5-ylamino]-pyrimidine-5-carbaldehyde O-ethyl-oxime], the results for the pIC50 against EGFR and at HER-2 were 7.00 and 6.70, respectively.
The like results for `Nc1ncnc(Nc2ccc3c(cnn3Cc3cccc(F)c3)c2)c1/C=N\OCCCO` [Cpd 69, (5Z)-4-amino-6-[1-(3-fluoro-benzyl)-1H-indazol-5-ylamino]-pyrimidine-5-carbaldehyde O-(3-hydroxy-propyl)-oxime] were, in that order, 8.00 and 8.40.
On to `COCCO/N=C/c1c(N)ncnc1Nc1ccc(OCc2ccccc2)c(Cl)c1` [Cpd 71, (5E)-4-amino-6-(4-benzyloxy-3-chloro-phenylamino)-pyrimidine-5-carbaldehyde O-(2-methoxy-ethyl)-oxime], for which the pIC50 was 8.00 at EGFR and 7.30 on HER-2.
Take `Nc1ncnc(Nc2ccc(OCc3ccccc3)c(Cl)c2)c1/C=N/O` [Cpd 77, (5E)-4-amino-6-(4-benzyloxy-3-chloro-phenylamino)-pyrimidine-5-carbaldehyde oxime]: the pIC50 is 7.70 against EGFR, 7.00 on HER-2 and 5.00 in assay [1] (setting [2]).
In the case of `Nc1ncnc(Nc2ccc(OCc3cccc(F)c3)c(Cl)c2)c1/C=N/O` [Cpd 79, (5E)-4-amino-6-[3-chloro-4-(3-fluoro-benzyloxy)-phenylamino]-pyrimidine-5-carbaldehyde oxime], the pIC50 at EGFR is 8.10; at HER-2, 8.00; in assay [1] (setting [2]) it was 4.00.
For `CO/N=C/c1c(N)ncnc1Nc1ccc(Cl)cc1F` [Cpd 80], the pIC50 against EGFR was 6.52; in assay [1] (setting [2]), 4.00.
As for `CO/N=C\c1c(N)ncnc1Nc1ccc(Cl)cc1F` [Cpd 81], the pIC50 in assay [1] (setting [2]) is 5.00.
On to `CO/N=C/c1c(N)ncnc1Nc1ccc(Br)cc1F` [Cpd 82], for which the pIC50 is 6.70 on EGFR and 4.00 in assay [1] (setting [2]).
As for `CO/N=C\c1c(N)ncnc1Nc1ccc(Br)cc1F` [Cpd 83], the pIC50 in assay [1] (setting [2]) was 5.44.
Consider `Nc1ncnc(Nc2ccc3c(cnn3Cc3cccc(F)c3)c2)c1/C=N/O` [Cpd 84, (5E)-4-amino-6-[1-(3-fluoro-benzyl)-1H-indazol-5-ylamino]-pyrimidine-5-carbaldehyde oxime], for which the pIC50 in assay [1] (setting [2]) is 5.31.
`Nc1ncnc(Nc2ccc3c(cnn3Cc3cccc(F)c3)c2)c1/C=N/OCCCO` [Cpd 85, (5E)-4-amino-6-[1-(3-fluoro-benzyl)-1H-indazol-5-ylamino]-pyrimidine-5-carbaldehyde O-(3-hydroxy-propyl)-oxime]: the pIC50 on EGFR was 7.70; at HER-2, 7.70; in assay [1] (HeLa), 4.81.
Regarding `CO/N=C/c1c(NOC)ncnc1Nc1ccc(Br)cc1F` [Cpd 86], the pIC50 in assay [1] (setting [2]) is 4.00.
In the case of `Nc1ncnc(Nc2ccc3c(ccn3Cc3cccc(F)c3)c2)c1/C=N/O` [Cpd 88, (5E)-4-amino-6-[1-(3-fluoro-benzyl)-1H-indol-5-ylamino]-pyrimidine-5-carbaldehyde oxime], the pIC50 against EGFR was 8.05; at HER-2, 7.70; in assay [1] (setting [2]), 4.96.
`CO/N=C/c1c(N)ncnc1Nc1cc(O)c(Cl)cc1F` [Cpd 89]: the negative-log IC50 (pIC50) in assay [1] (setting [2]) was 5.00.
As to `CO/N=C\c1c(N)ncnc1Nc1cc(O)c(Cl)cc1F` [Cpd 90], the pIC50 in assay [1] (setting [2]) was 5.00.
For `CO/N=C/c1c(N)ncnc1Nc1ccc(OCc2cc(F)cc(F)c2)c(Cl)c1` [Cpd 97, (5E)-4-amino-6-[3-chloro-4-(3,5-difluoro-benzyloxy)-phenylamino]-pyrimidine-5-carbaldehyde O-methyl-oxime], the pIC50 on HER-2 was 6.00; in assay [1] (setting [2]), 4.00.
For `Nc1ncnc(Nc2ccc(OCc3cc(F)cc(F)c3)c(Cl)c2)c1/C=N/O` [Cpd 98, (5E)-4-amino-6-[3-chloro-4-(3,5-difluoro-benzyloxy)-phenylamino]-pyrimidine-5-carbaldehyde oxime], the results for the pIC50 (against EGFR; on HER-2; in assay [1] (setting [2])) were 7.70, 7.00 and 4.00, respectively.
In the case of `C[C@H](Nc1ncnc(N)c1/C=N/O)c1ccccc1` [Cpd 100, (5E)-4-amino-6-[(1S)-1-phenyl-ethylamino]-pyrimidine-5-carbaldehyde oxime], the pIC50 is 7.70 against EGFR and 5.00 in assay [1] (setting [2]).
In the case of `C[C@H](Nc1ncnc(N)c1/C=N/OCCN1CCOCC1)c1ccccc1` [Cpd 103], in assay [1] (setting [2]), the pIC50 was 5.00.
Consider `CO/N=C/c1c(N)ncnc1Nc1ccc(NC(=O)c2ccccc2)cc1` [Cpd 104], for which, in assay [1] (setting [2]), the pIC50 is 5.00.
The same measure, in the same setting: to `Nc1ncnc(Nc2ccc(NC(=O)c3ccccc3)cc2)c1/C=N/O` [Cpd 105] belongs 4.00; to `C[C@H](Nc1ncnc(N)c1/C=N/OCCN1CCCCC1)c1ccccc1` [Cpd 106], 5.00; to `Nc1ncnc(Nc2ccc(NC(=O)c3ccccc3)cc2)c1/C=N/OCCN1CCOCC1` [Cpd 107], 4.00.
For `Nc1ncnc(Nc2ccc(Oc3ccccc3)cc2)c1/C=N/OCCN1CCOCC1` [Cpd 109], the pIC50 in assay [1] (setting [2]) is 4.00.
Consider `CO/N=C/c1c(N)ncnc1Nc1cnc(NC(=O)c2ccccc2)nc1` [Cpd 110], for which the pIC50 in assay [1] (setting [2]) is 4.48.
Regarding `Nc1ncnc(Nc2ccc(Oc3ccccc3)cc2)c1/C=N/O` [Cpd 111, (5E)-4-amino-6-(4-phenoxy-phenylamino)-pyrimidine-5-carbaldehyde oxime], the pIC50 was 7.00 against EGFR and 6.52 on HER-2.
For orientation: inhibition means how much of the control response was suppressed. Turning to `CON=Cc1c(N)ncnc1Nc1ccc(OC)cc1` [Cpd 120, 4-amino-6-(4-methoxy-phenylamino)-pyrimidine-5-carbaldehyde O-methyl-oxime], the inhibition at 2 µM against EGFR was 15%. In addition, on HER-2, the pIC50 was 5.10.
Take `CON=Cc1c(N)ncnc1NCc1ccc(OC)c(OC)c1` [Cpd 122, 4-amino-6-(3,4-dimethoxy-benzylamino)-pyrimidine-5-carbaldehyde O-methyl-oxime]: at EGFR, the inhibition at 2 µM was determined as 6%. The negative logarithm of the IC50 (pIC50) on HER-2 was under 4.00.
The molecule `CON=Cc1c(N)ncnc1NCc1ccc(Oc2ccccc2)cc1` [Cpd 123, 4-amino-6-(4-phenoxy-benzylamino)-pyrimidine-5-carbaldehyde O-methyl-oxime] came in with an inhibition at 2 µM on EGFR of 7%. Further, the pIC50 at HER-2 is under 4.00.
`CON=Cc1c(N)ncnc1NC1CCc2ccccc21` (stereo not shown) [Cpd 124, 4-amino-6-(indan-1-ylamino)-pyrimidine-5-carbaldehyde O-methyl-oxime] came in with an inhibition at 2 µM at EGFR of 26%. The pIC50 on HER-2 was 5.61.
At EGFR, `CON=Cc1c(N)ncnc1NC1CCCc2ccccc21` (stereo not shown) [Cpd 125, 4-amino-6-(1,2,3,4-tetrahydro-naphthalen-1-ylamino)-pyrimidine-5-carbaldehyde O-methyl-oxime] gave an inhibition at 2 µM of 42%. Besides, the inhibition at 1 µM on HER-2 (test concentration of 1 μM, read-out: HER2 % inhibition) was determined as 25%.
Consider `CON=Cc1c(N)ncnc1Nc1ccc(Oc2ccccc2)nc1` [Cpd 128, 4-amino-6-(6-phenoxy-pyridin-3-ylamino)-pyrimidine-5-carbaldehyde O-methyl-oxime], for which at 2 µM the inhibition at EGFR was 45%. Besides, the pIC50 on HER-2 was 5.74.
At EGFR, `CON=Cc1c(N)ncnc1Nc1ccc(N2CCOCC2)nc1` [Cpd 129, 4-amino-6-(6-morpholin-4-yl-pyridin-3-ylamino)-pyrimidine-5-carbaldehyde O-methyl-oxime] yielded an inhibition at 2 µM of 1%. The negative-log IC50 (pIC50) at HER-2 is under 4.00.
